This is an account of results in patent US20230303497A1, “BENZYLAMINE OR BENZYL ALCOHOL DERIVATIVE AND USES THEREOF” (CHENGDU HYPERWAY PHARMACEUTICALS CO., LTD, priority 2020, published 2023).

A value given as a limit tells only on which side of the number the result lay.

human NaV1.8 ion channel, sequence (Q9Y5Y9 whole entry): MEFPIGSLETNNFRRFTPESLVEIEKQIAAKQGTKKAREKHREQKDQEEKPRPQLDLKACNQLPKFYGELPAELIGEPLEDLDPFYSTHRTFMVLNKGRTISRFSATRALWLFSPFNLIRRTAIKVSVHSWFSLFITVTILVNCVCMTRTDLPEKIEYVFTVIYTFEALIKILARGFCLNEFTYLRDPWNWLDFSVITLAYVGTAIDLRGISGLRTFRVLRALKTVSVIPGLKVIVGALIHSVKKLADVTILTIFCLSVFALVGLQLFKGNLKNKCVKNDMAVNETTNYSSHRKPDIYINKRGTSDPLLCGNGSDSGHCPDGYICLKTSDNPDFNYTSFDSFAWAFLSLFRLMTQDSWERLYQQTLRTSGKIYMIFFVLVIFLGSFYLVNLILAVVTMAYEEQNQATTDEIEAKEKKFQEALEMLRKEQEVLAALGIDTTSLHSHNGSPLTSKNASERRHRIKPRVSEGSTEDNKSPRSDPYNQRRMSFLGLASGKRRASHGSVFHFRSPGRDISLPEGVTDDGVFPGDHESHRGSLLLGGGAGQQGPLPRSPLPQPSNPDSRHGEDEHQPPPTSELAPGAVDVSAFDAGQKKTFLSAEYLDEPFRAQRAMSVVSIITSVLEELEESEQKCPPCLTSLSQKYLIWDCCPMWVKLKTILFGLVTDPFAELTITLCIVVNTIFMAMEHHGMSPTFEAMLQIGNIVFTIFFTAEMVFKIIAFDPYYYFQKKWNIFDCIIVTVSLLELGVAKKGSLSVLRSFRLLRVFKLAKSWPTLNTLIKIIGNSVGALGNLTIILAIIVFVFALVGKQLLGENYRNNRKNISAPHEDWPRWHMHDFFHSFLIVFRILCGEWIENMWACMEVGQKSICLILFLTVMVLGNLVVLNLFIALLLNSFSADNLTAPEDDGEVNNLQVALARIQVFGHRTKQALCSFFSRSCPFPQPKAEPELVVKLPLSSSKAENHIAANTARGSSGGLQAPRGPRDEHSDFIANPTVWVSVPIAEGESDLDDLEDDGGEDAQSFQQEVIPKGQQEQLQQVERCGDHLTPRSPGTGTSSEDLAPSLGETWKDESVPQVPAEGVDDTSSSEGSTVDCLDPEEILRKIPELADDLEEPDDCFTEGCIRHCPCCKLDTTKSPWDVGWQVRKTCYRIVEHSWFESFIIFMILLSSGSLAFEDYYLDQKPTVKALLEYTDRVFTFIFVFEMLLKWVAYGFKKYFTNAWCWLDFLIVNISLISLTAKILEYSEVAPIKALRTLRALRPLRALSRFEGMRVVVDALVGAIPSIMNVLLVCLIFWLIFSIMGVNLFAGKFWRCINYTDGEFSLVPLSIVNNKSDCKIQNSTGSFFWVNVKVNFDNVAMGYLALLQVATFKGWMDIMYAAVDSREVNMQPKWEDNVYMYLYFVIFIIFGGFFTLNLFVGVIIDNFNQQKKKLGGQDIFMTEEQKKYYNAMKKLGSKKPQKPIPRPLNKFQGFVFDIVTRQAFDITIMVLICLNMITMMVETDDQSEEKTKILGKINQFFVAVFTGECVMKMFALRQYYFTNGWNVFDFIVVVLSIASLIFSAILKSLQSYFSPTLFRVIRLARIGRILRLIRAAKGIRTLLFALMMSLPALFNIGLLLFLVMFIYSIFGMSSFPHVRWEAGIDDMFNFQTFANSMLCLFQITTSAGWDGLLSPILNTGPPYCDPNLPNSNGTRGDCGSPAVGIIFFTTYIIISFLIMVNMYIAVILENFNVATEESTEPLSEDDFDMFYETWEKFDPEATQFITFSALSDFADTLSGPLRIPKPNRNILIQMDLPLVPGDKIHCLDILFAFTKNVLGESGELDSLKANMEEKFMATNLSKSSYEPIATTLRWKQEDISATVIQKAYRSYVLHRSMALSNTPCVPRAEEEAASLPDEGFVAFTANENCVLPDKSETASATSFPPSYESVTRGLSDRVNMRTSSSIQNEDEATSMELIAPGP

The target in one experiment is human NaV1.8 ion channel (Homo sapiens (Human), UniProt Q9Y5Y9). Nature of the experiment: Compound inhibition activity on human NaV1.8 ion channel in HEK293 cells (whole-cell patch clamp). In kind it is cell-based. Particulars: 100 nm concentration; HEK293 cells, resting protocol. As to the method:
Test Case 1: Compound Inhibition Activity on Human NaV1.8 Ion Channel in HEK293 Cells
The final concentrations of the test compounds are prepared on the same day and then dissolved in extracellular solution. […] The intracellular solution (mM) contains: Aspartic acid, 140; MgCl2, 2; EGTA 11; HEPES, 10; pH 7.2 (CsOH titration). All test solutions contain 1 μM TTX.
The test solution are stored at a concentration of 3 mM in dimethyl sulfoxide (DMSO). The solutions will be dissolved in extracellular solution on the day of testing and prepared to the required concentration.
All experiments were performed at room temperature. Each cell itself is taken as the corresponding control.
At least one cell is tested per concentration.
HEK293 cell steady expressing NaV1.8 ion channel.
The intracellular fluid (mM) contains: Aspartic acid, 140; MgCl2, 2; EGTA 11; HEPES, 10; pH 7.2 (CsOH titration). […] Electrodes are drawn with PC-10 (Narishige, Japan). Recording is performed with whole-cell diaphragm clamp.
The cells are clamped at −80 mV and then depolarized to 10 mV with a sustained 10 ms square wave to give a Nav1.8 current. This procedure is repeated every 5 seconds.
As to `Cc1cc(F)ccc1Oc1cc(C2CC2)c(C(F)(F)F)cc1C(=O)Nc1ccc(F)c(C(N)CCO)c1` (stereo not shown) [Example 3, N-(3-(1-Amino-3-hydroxypropyl)-4-fluorophenyl)-4-cyclopropyl-2-(4-fluoro-2-methylphenoxy)-5-(trifluoromethyl) benzamide], the “Inhibition ratio of Nav1.8 (Activity of inhibition)” value (“Inhibition ratio” below) was “A (A >= 80)”.

With `Cc1cc(F)ccc1Oc1ccc(C(F)(F)F)cc1C(=O)Nc1ccc(F)c(C2CCCN2)c1` (stereo not shown) [Example 15, 2-(4-fluoro-2-methylphenoxy)-N-(4-fluoro-3-(pyrrolidin-2-yl)phenyl)-5-(trifluoromethyl) benzamide], the “Inhibition ratio” value was “C (50 >C >= 20)”.

As to `Cc1cc(F)ccc1Oc1ccc(C(F)(F)F)cc1C(=O)Nc1ccc(F)c(C2CCC(C(N)=O)N2)c1` (stereo not shown) [Example 16, 5-(2-fluoro-5-(2-(4-fluoro-2-methylphenoxy)-5-(trifluoromethyl)benzamido)phenyl) pyrrolidine-2-carboxacylamino], the “Inhibition ratio” value was “D (D < 20)”.

For the molecule `Cc1cc(F)ccc1Oc1ccc(C(F)(F)F)cc1C(=O)Nc1ccc(F)c(CC(N)C(N)=O)c1` (stereo not shown) [Example 17, N-(3-(2,3-Diamino-3-oxopropyl)-4-fluorophenyl)-2-(4-fluoro-2-methylphenoxy)-5-(trifluoromethyl) benzamide], the “Inhibition ratio” value is on record as “D (D < 20)”.

Staying with this experiment, now noted: 100 nm concentration; HEK293 cells, resting protocol; read-out: Inhibition ratio of Nav1.8 (Activity of inhibition).
Turning to `Cc1cc(F)ccc1Oc1ccc(C(F)(F)F)cc1C(=O)Nc1ccc(F)c(C(N)CC(=O)O)c1` (stereo not shown) [Example 2, 3-Amino-3-(2-fluoro-5-(2-(4-fluoro-2-methylphenoxy)-5-(trifluoromethyl)benzamido)phenyl) propanoic acid], the inhibition at 0.1 µM is less than 20%.

For `COCCC(N)c1cc(NC(=O)c2cc(C(F)(F)F)c(C3CC3)cc2Oc2ccc(F)cc2C)ccc1F` (stereo not shown) [Example 5, N-(3-(1-Amino-3-methoxypropyl)-4-fluorophenyl)-4-cyclopropyl-2-(4-fluoro-2-methylphenoxy)-5-(trifluoromethyl) benzamide], the inhibition at 0.1 µM fell in the range of 50 to 80%.

For `CC(=O)NC(CCO)c1cc(NC(=O)c2cc(C(F)(F)F)c(C3CC3)cc2Oc2ccc(F)cc2C)ccc1F` (stereo not shown) [Example 6, N-(3-(1-Acetylamino-3-hydroxypropyl)-4-fluorophenyl)-4-cyclopropyl-2-(4-fluoro-2-methylphenoxy)-5-(trifluoromethyl) benzamide], the inhibition at 0.1 µM lay within 50 to 80%.

Turning to `CNC(CCO)c1cc(NC(=O)c2cc(C(F)(F)F)c(C3CC3)cc2Oc2ccc(F)cc2C)ccc1F` (stereo not shown) [Example 7, 4-Cyclopropyl-2-(4-fluoro-2-methylphenoxy)-N-(4-fluoro-3-(3-hydroxy-1-(methylamino)propyl)phenyl)-5-(trifluoromethyl) benzamide], the inhibition at 0.1 µM was greater than 80%.

Turning to `Cc1cc(F)ccc1Oc1cc(C2CC2)c(C(F)(F)F)cc1C(=O)Nc1ccc(F)c(C(CCO)N(C)C)c1` (stereo not shown) [Example 8, 4-Cyclopropyl-N-(3-(1-(dimethylamino)-3-hydroxypropyl)-4-fluorophenyl)-2-(4-fluoro-2-methylphenoxy)-5-(trifluoromethyl) benzamide], the inhibition at 0.1 µM was greater than 80%.

As for `Cc1cc(F)ccc1Oc1cc(C2CC2)c(C(F)(F)F)cc1C(=O)Nc1ccc(F)c(C(N)C(N)=O)c1` (stereo not shown) [Example 9, 4-Cyclopropyl-N-(3-(1,2-diamino-2-oxoethyl)-4-fluorophenyl)-2-(4-fluoro-2-methylphenoxy)-5-(trifluoromethyl) benzamide], the inhibition at 0.1 µM is greater than 80%.

`CNC(C(N)=O)c1cc(NC(=O)c2cc(C(F)(F)F)c(C3CC3)cc2Oc2ccc(F)cc2C)ccc1F` (stereo not shown) [Example 10, N-(3-(2-amino-1-(methylamino)-2-oxoethyl)-4-fluorophenyl)-4-cyclopropyl-2-(4-fluoro-2-methylphenoxy)-5-(trifluoromethyl) benzamide]: the inhibition at 0.1 µM is greater than 80%.

For the molecule `Cc1cc(F)ccc1Oc1cc(C2CC2)c(C(F)(F)F)cc1C(=O)Nc1ccc(F)c(C(N)CO)c1` (stereo not shown) [Example 11, N-(3-(1-Amino-2-hydroxyethyl)-4-fluorophenyl)-4-cyclopropyl-2-(4-fluoro-2-methylphenoxy)-5-(trifluoromethyl) benzamide], the inhibition at 0.1 µM is greater than 80%.

In the case of `Cc1cc(F)ccc1Oc1ccc(C(F)(F)F)cc1C(=O)Nc1ccc(F)c(CN)c1` [Example 12, N-(3-(Aminomethyl)-4-fluorophenyl)-2-(4-fluoro-2-methylphenoxy)-5-(trifluoromethyl) benzamide], the inhibition at 0.1 µM was 50 to 80%.

On to `Cc1cc(F)ccc1Oc1ccc(C(F)(F)F)cc1C(=O)Nc1ccc(F)c(CNCC(N)=O)c1` [Example 13], for which the inhibition at 0.1 µM lay within 20 to 50%.

As for `Cc1cc(F)ccc1Oc1ccc(C(F)(F)F)cc1C(=O)Nc1ccc(F)c(C(C)N)c1` (stereo not shown) [Example 14, N-(3-(1-aminoethyl)-4-fluorophenyl)-2-(4-fluoro-2-methylphenoxy)-5-(trifluoromethyl) benzamide], the inhibition at 0.1 µM fell in the range of 50 to 80%.

In the case of `Cc1cc(F)ccc1Oc1ccc(C(F)(F)F)cc1C(=O)Nc1ccc(F)c(C2NCCNC2=O)c1` (stereo not shown) [Example 18, 2-(4-Fluoro-2-methylphenoxy)-N-(4-fluoro-3-(3-oxopiperazin-2-yl)phenyl)-5-(trifluoromethyl) benzamide], the inhibition at 0.1 µM was less than 20%.

For the molecule `Cc1cc(F)ccc1Oc1cc(C2CC2)c(C(F)(F)F)cc1C(=O)Nc1ccc(F)c(C(N)C2CCNC2=O)c1` (stereo not shown) [Example 19, N-(3-(amino (2-oxopyrrolidin-3-yl)methyl)-4-fluorophenyl)-4-cyclopropyl-2-(4-fluoro-2-methylphenoxy)-5-(trifluoromethyl) benzamide], the inhibition at 0.1 µM is greater than 80%.

`Cc1cc(F)ccc1Oc1cc(C2CC2)c(C(F)(F)F)cc1C(=O)Nc1ccc(F)c(C(N)CC(C)O)c1` (stereo not shown) [Example 20, N-(3-(1-Amino-3-hydroxybutyl)-4-fluorophenyl)-4-cyclopropyl-2-(4-fluoro-2-methylphenoxy)-5-(trifluoromethyl) benzamide]: the inhibition at 0.1 µM fell in the range of 50 to 80%.

On to `Cc1cc(F)ccc1Oc1cc(C2CC2)c(C(F)(F)F)cc1C(=O)Nc1ccc(F)c(C(N)C(F)CO)c1` (stereo not shown) [Example 22, N-(3-(1-Amino-2-fluoro-3-hydroxypropyl)-4-fluorophenyl)-4-cyclopropyl-2-(4-fluoro-2-methylphenoxy)-5-(trifluoromethyl) benzamide], for which the inhibition at 0.1 µM is greater than 80%.

Take `Cc1cc(F)ccc1Oc1cc(C2CC2)c(C(F)(F)F)cc1C(=O)Nc1ccc(F)c(C(N)CCN)c1` (stereo not shown) [Example 24, 4-Cyclopropyl-N-(3-(1,3-diaminopropyl)-4-fluorophenyl)-2-(4-fluoro-2-methylphenoxy)-5-(trifluoromethyl) benzamide]: the inhibition at 0.1 µM is greater than 80%.

Consider `Cc1cc(F)ccc1Oc1ccc(C(F)(F)F)cc1C(=O)Nc1ccc(F)c(C(O)C2CCNC2=O)c1` (stereo not shown) [Example 25, 2-(4-fluoro-2-methylphenoxy)-N-(4-fluoro-3-(hydroxyl (2-oxopyrrolidin-3-yl)methyl)phenyl)-5-(trifluoromethyl) benzamide], for which the inhibition at 0.1 µM fell in the range of 20 to 50%.

As for `Cc1cc(F)ccc1Oc1ccc(C(F)(F)F)cc1C(=O)Nc1ccc(F)c(C(O)C(N)=O)c1` (stereo not shown) [Example 26, N-(3-(2-Amino-1-hydroxy-2-oxoethyl)-4-fluorophenyl)-2-(4-fluoro-2-methylphenoxy)-5-(trifluoromethyl) benzamide], the inhibition at 0.1 µM lay within 20 to 50%.

In the case of `Cc1cc(F)ccc1Oc1ccc(C(F)(F)F)cc1C(=O)Nc1ccc(F)c(C(C)C(N)=O)c1` (stereo not shown) [Example 27, N-(3-(1-Amino-1-oxopropan-2-yl)-4-fluorophenyl)-2-(4-fluoro-2-methylphenoxy)-5-(trifluoromethyl) benzamide], the inhibition at 0.1 µM is greater than 80%.

Consider `Cc1cc(F)ccc1Oc1cc(C2CC2)c(C(F)(F)F)cc1C(=O)Nc1ccc(F)c(C(C)CCO)c1` (stereo not shown) [Example 28, 4-cyclopropyl-2-(4-fluoro-2-methylphenoxy)-N-(4-fluoro-3-(4-hydroxybutan-2-yl)phenyl)-5-(trifluoromethyl) benzamide], for which the inhibition at 0.1 µM was in the range of 20 to 50%.

With `Cc1cc(F)ccc1Oc1cc(C2CC2)c(C(F)(F)F)cc1C(=O)Nc1ccc(F)c(C(C)CCN)c1` (stereo not shown) [Example 29, N-(3-(4-Aminobutan-2-yl)-4-fluorophenyl)-4-cyclopropyl-2-(4-fluoro-2-methylphenoxy)-5-(trifluoromethyl) benzamide], the inhibition at 0.1 µM was 50 to 80%.

Take `Cc1cc(F)ccc1Oc1cc(C2CC2)c(C(F)(F)F)cc1C(=O)Nc1ccc(F)c(C(C)CN)c1` (stereo not shown) [Example 30, N-(3-(1-aminopropyl-2-yl)-4-fluorophenyl)-4-cyclopropyl-2-(4-fluoro-2-methylphenoxy)-5-(trifluoromethyl) benzamide]: the inhibition at 0.1 µM lay in the range of 50 to 80%.

Consider `Cc1cc(F)ccc1Oc1cc(C2CC2)c(C(F)(F)F)cc1C(=O)Nc1ccc(F)c(C(F)CCO)c1` (stereo not shown) [Example 31, 4-Cyclopropyl-2-(4-fluoro-2-methylphenoxy)-N-(4-fluoro-3-(1-fluoro-3-hydroxypropyl)phenyl)-5-(trifluoromethyl) benzamide], for which the inhibition at 0.1 µM is 50 to 80%.

The experiment is the same for the next values; noted with them: HEK293, read-out: Inhibition ratio of Nav1.8 (Activity of inhibition).
`Cc1cc(F)ccc1Oc1ccc(C(F)(F)F)cc1C(=O)Nc1ccc(F)c(C(N)C(C)C(N)=O)c1` (stereo not shown) [Example 4, N-(3-(1,3-Diamino-2-methyl-3-oxopropyl)-4-fluorophenyl)-2-(4-fluoro-2-methylphenoxy)-5-(trifluoromethyl) benzamide]: the inhibition at 0.1 µM lay within 50 to 80%.
